Measurements reported in patent publication US5668159A, “1,3,4-thiadiazoles and 1,3,4-oxadiazoles as IIb/IIIa antagonists” (The DuPont Merck Pharmaceutical Company, priority 1996, dated 1997).
Structures can show the parent of a compound that is named as a salt.

Tested on: platelet aggregation (platelet rich plasma (PRP))
Assay: Platelet Aggregation Assay (inhibition of agonist-induced platelet aggregation in platelet rich plasma)
Assay type: cell-based
Details: with esterase, ester prodrugs preincubated with 100 IU/mL porcine liver esterase 2 hours at 37° C., human PRP, 100 μM ADP, read-out: Platelet Aggregation Assay IC50 (with esterase)
Protocol: Platelet Aggregation Assay: Venous blood was obtained from the arm of a healthy human donor who was drug-free and aspirin-free for at least two weeks prior to blood collection. Blood was collected into 10 mL citrated Vacutainer tubes. The blood was centrifuged for 15 minutes at 150× g at room temperature, and platelet-rich plasma (PRP) was removed. The remaining blood was centrifuged for 15 minutes at 1500× g at room temperature, and platelet-poor plasma (PPP) was removed. Samples were assayed on a aggregometer (PAP-4 Platelet Aggregation Profiler), using PPP as the blank (100% transmittance). 200 μL of PRP was added to each micro test tube, and transmittance was set to 0%. 20 μL of various agonists (ADP, collagen, arachidonate, epinephrine, thrombin) were added to each tube, and the aggregation profiles were plotted (% transmittance versus time). The results are expressed as % inhibition of agonist-inducedplatelet aggregation. For the IC50 evaluation, the test compounds were added at various concentrations prior to the activation of the platelets.
Ester prodrugs were preincubated (10^-3 M F.C.) with 100 IU/mL Porcine liver esterase (Sigma Chemical Co., St. Louis, Mo., #E-3128) for 2 hours at 37° C. Aliquots are then diluted in 0.1M Tris, p H 7.4, to the desired concentrations. Aliquots of 20 μl of the esterase pretreated prodrugs are added to 200 μl of human platelet rich plasma. Samples were placed in platelet profiler (aggregometer) for 8 minutes at 37° C., followed by the addition of 100 μM Adenosine Diphosphate, (Sigma Chemical Co., St. Louis, Mo., #A-6521), to induce platelet aggregation. Platelet aggregation was allowed to proceed for 5 minutes. Percent inhibition is calculated using percent aggregation in the presence of the test compound divided by percent aggregation of control, times 100. This value is subtracted from 100, yielding percent inhibition. Calculation of IC50 is performed on a Texas Instruments TI59 with an IC50 program.
Table A below sets forth the antiplatelet activity of representative compounds of the present invention. The indicated compounds were tested for their ability to inhibit platelet aggregation (using platelet rich plasma (PRP)). The IC50 value (the concentration of antagonist which inhibits platelet aggregation by 50% relative to a control lacking the antagonist) is shown. In Table A the IC50 values are expressed as: +++=IC50 of <10 μM; ++=IC50 of […]; +=IC50 of 50-100 μM (μM=micromolar).

Row | SMILES | IC50 [µM]
1 | CCOC(=O)[C@H](Cc1ccccc1)NC(=O)CSc1nnc(-c2ccc(C(=N)N)cc2)o1 [Example 399, Ethyl N-[2-{2-(4-amidinophenyl)-1,3,4-oxadiazol-5-ylthio}-acetyl]-(S)-phenylalanine HCl salt] | 10 to 50
2 | CCCCOC(=O)NC[C@H](NC(=O)CSc1nnc(-c2ccc(C(=N)N)cc2)s1)C(=O)OC [Example 440, Methyl N^2-[2-{2-(4-amidinophenyl)-1,3,4-thiodiazol-5-ylthio}-acetyl]-N^3-(n-butyloxycarbonyl)-2,3-(S)-diaminopropionate HCl salt] | < 10
